Source: patent US6420374B1, “Use of xanthines as immunosuppressants and to inhibit allograft reactions” (Fred Hutchinson Cancer Research Center, priority 1990, dated 2002)
“Also recorded” adds a separate entry of the source. Where two headings read alike, the source gives them in different places.

What was measured:
[1] = cited from earlier work; for rank among the metabolites of pentoxifylline: in vivo
TNF mRNA in U937 cells = details: cited from earlier work
[2] = system: PHA-stimulated mononuclear cells; assay: PHA-stimulated blood mononuclear cells, tritiated thymidine (3Htdr) uptake; format: cell-based, human; details: rhTNF 200 U/ml added at inception of culture
Excerpt: (§1) Results are the means SD of triplicate wells.
(§2) All values except those for M1 represent: the means of calculated results from 6 to 8 independent experiments. The M1 results are the average of 2 independent experiments.

[3] = system: bidirectional MLR of blood mononuclear cells; assay: Bidirectional mixed leukocyte reaction (MLR), tritiated thymidine (3Htdr) uptake; format: cell-based, human; details: for lowest concentration with significant suppression of 3Htdr uptake / most effective concentration (highest concentration tested): PHA / MLR cultures; for inhibition of 3Htdr uptake: blood mononuclear cells with PHA and in bidirectional MLR's, after 6 days in culture, concentration dependent; for T cell activation and proliferation: both by direct stimulation with PHA and in an MLR; for suppressing lymphocyte activation evidenced by MLR: in vitro
Excerpt: More particularly, co-cultivation of leukocytes from unrelated individuals leads to blast transformation and proliferation similar to that observed upon addition of mitogens to T-cells. The basis of this reaction appears to be the activation of T-cells from one individual by cell surface markers of another. Co-culturing of blood leukocytes from two individuals is referred to as “mixed leukocyte culture” or “MLC” and the reaction as “mixed leukocyte reaction” or “MLR”. Co-culturing of cells obtained from lymphoid organs is designated “mixed lymphocyte culture” or “mixed lymphocyte reaction”. Since even in the mixed leukocyte reaction, the participating cells are peripheral blood T lymphocytes, there is generally substantially no difference between the two types of culture. Thus, these expressions are used interchangeably herein.
MLR can be carried out using conventional techniques. Cultured cells for the MLR can be derived from peripheral blood, spleen, lymph nodes, or thymus. Cell number can vary by several orders of magnitude. The stimulating cells can be inactivated by irradiation or treatment with an antibiotic to disrupt DNA replication. The culture medium can be supplemented, if necessary, by serum proteins of autologous, syngeneic, allogeneic, or xenogeneic origin. Cultivation can be carried out over a period of several days. The degree of stimulation of responder cells by stimulating cells can be determined from the uptake rate of ^3H-thymidine or radiolabeled amino acids or by counting blasts and dividing cells. If a radiolabel is employed, it can be added to the culture several hours before harvesting.
When blood mononuclear cells from two unrelated individuals are cultured together, mutual stimulation occurs resulting in T cell activation and blastogenesis and ultimately in the generation of cytotoxic T cells and memory cells. This complex series of events, termed the mixed leukocyte reaction (MLR), requires genetic disparaties at the HLA-DR locus. Monocytic cells are needed for antigen processing and presentation. The MLR is thus measures lymphocyte recognition and response to non-self-antigens and serves as an in vitro representation of some of the cellular events associated with graft-versus-host disease (GVHD) and allograft rejection.
as §1, §2

TNF = assay: Release of TNF into the culture medium; format: cell-based, human
TNF mRNA = TNF mRNA level in whole cellular RNA extracted from an MLR; format: cell-based, human; details: MLR containing the compound
Excerpt: There was no decrease in cell viability in the test cultures as assessed by trypan blue dye exclusion (cell viability >95% in all groups). When whole cellular RNA was extracted from an MLR, there was some upregulation of […] compared to cultures of the mononuclear cells cultured individually. However, basal levels of TNF mRNA were readily detectable, possibly due to some activation during the culture period. This was also reflected by significant levels of ^3Htdr uptake.

[4] = system: T cell activation antigens (HLA-DR, transferrin receptor, IL-2 receptor, CD69; CD2); assay: Expression of T cell activation antigens by direct immunofluorescence after 6 days in a bidirectional MLR; format: cell-based, human; details: for expression of CD69 / expression of HLA-DR / expression of the IL-2 receptor / expression of the transferrin receptor: to near the levels of mononuclear cells from a single donor
Method: The following fluorescein isothyoc:yanate (FITC) or phycoerythrin (PE) conjugated antibodies were used: IgGl and IgG2a isotype controls, anti-HLe-1 (CD45), anti-LeuM3 (CD14). anti-Leu4(cd3), anti-IL2-receptor (CD25), anti-transferrin receptor (CD71), anti-HLA-DR, and anti-Leu23 (CD69). (All antibodies were from Becton-Dickinson, San Jose, Calif.) Staining was performed using Manufacturer's recommendations ([…] antibody/10^6 cells in 0.1 ml of phosphate buffered saline for 20′ at room temperature). The cells were washed twice, resuspended and analyzed on a Becton-Dickinson FACSan flow cytometer operating under Consort 30 software. The lymphocyte analysis gate was determined on the basis of forward scatter and side scatter and confirmed by examination of two-color immunofluorescence display for CD4S and CD14. Data are presented as the percentage of cells with fluorescence greater than that of the appropriate isotype control.
During T cell activation, there is increased expression of certain cell surface determinants which can serve as markers of activation.

[5] = human urine, Metabolites II and III together

## Cn1cnc2c1c(=O)n(CCCC(=O)O)c(=O)n2C [Metabolite V, 1-(3-carboxypropyl)-3,7-dimethylxanthine]
[1]; human urine, main urinary metabolite
  share of the administered dose in urine: 50-60%
[1]
  rank among the metabolites of pentoxifylline: major metabolites

## Cn1cnc2c1c(=O)n(CCCCC(=O)O)c(=O)n2C [Metabolite IV, 1-(4-carboxybutyl)-3,7-dimethylxanthine]
[1]; human urine
  share of the excretion products: about 8%

## CC(=O)CCCCn1c(=O)c2c(ncn2C)n(C)c1=O [PTX, 1-(5-oxohexyl)-3,7-dimethylxanthine]
TNF mRNA in U937 cells
  endotoxin induced upregulation of TNF mRNA: can prevent
[2]
  diminution in response to PHA after addition of recombinant human TNF: not abrogated
[3]
  lowest concentration with significant suppression of 3Htdr uptake: 0.01 mM
  most effective concentration (highest concentration tested): 1 mM
  inhibition of 3Htdr uptake: actively inhibited
  T cell activation and proliferation: suppressed
[3]; rhTNF 200 U/ml added at inception of culture
  diminution (suppression) of the MLR after addition of recombinant human TNF: not abrogated; also recorded: not reversed
TNF
  release of the cytokine (TNF) into the culture medium: decreased
TNF mRNA
  level of TNF mRNA: significantly decreased
[4]
  expression of CD2 (non-activation dependent pan-T antigen): no differences
  expression of CD69: decreased
  expression of HLA-DR: decreased
  expression of the IL-2 receptor: decreased
  expression of the transferrin receptor: decreased

## CC(O)C(O)CCCn1c(=O)c2c(ncn2C)n(C)c1=O (centres unmarked) [Metabolite III, 1-(4,5-dihydroxyhexyl)-3,7-dimethylxanthine]
[1]; [5]
  share of the excretion products: approximately 12%

## CC(O)CCCCn1c(=O)c2c(ncn2C)n(C)c1=O (centres unmarked) [Compound M1, 1-(5-hydroxyhexyl)-3,7-dimethylxanthine]
[1]; human urine
  amount found in urine: Only traces
[1]
  rank among the metabolites of pentoxifylline: major metabolites
[3]
  lowest concentration with significant suppression of 3Htdr uptake: 0.01 mM
  most effective concentration (highest concentration tested): 1 mM
  inhibition of 3Htdr uptake: actively inhibited
  T cell activation and proliferation: suppressed

## CCCCn1c(=O)c2c(ncn2CC(C)=O)n(CCCC)c1=O [Denbufylline, 7-acetonyl-1,3-dibutyl-xanthine]
[3]
  suppressing lymphocyte activation evidenced by MLR: not effective
[3]; listed as compound (III)
  suppressing lymphocyte activation evidenced by MLR: has not been demonstrated

## Cn1cnc2c1c(=O)n(CCCCC(O)CO)c(=O)n2C (centres unmarked) [Metabolite II, 1-(5,6-dihydroxyhexyl)-3,7-dimethylxanthine]
[1]; [5]
  share of the excretion products: approximately 12%

## CCOCn1cnc2c1c(=O)n(CCCCC(C)(C)O)c(=O)n2C [Compound 1, 7-ethoxymethyl-1-(5-hydroxy-5-methylhexyl)-3-methylxanthine]
[3]
  inhibition of 3Htdr uptake: actively inhibited
  T cell activation and proliferation: suppressed
TNF mRNA
  level of TNF mRNA: significantly decreased
[4]
  expression of CD2 (non-activation dependent pan-T antigen): no differences
  expression of CD69: decreased
  expression of HLA-DR: decreased
  expression of the IL-2 receptor: decreased
  expression of the transferrin receptor: decreased
